The data set relates to MDCK-WT, MDCK-CYP3A4 and MDCK-MDR1-CYP3A4 cells. The data set is described as follows: Mannitol. The data set is classed as in vitro ADME, dog. The settings on record: paracellular marker; data not shown.

Turning to `OC[C@@H](O)[C@@H](O)[C@H](O)[C@H](O)CO` [mannitol], the “Mannitol transport in MDCK-WT, MDCK-CYP3A4 and MDCK-MDR1-CYP3A4 cells” value is “No significant difference”.
